Assay [1] deals with Bacillus subtilis. In words: Antibacterial activity against Bacillus subtilis ATCC 6633 assessed as inhibition zone at 25 ug/mL by Kirby Bauer paper diffusion method. Format: functional. The following applies: read-out: DIZ.
The next assay concerns Escherichia coli. The experiment in a line: Antibacterial activity against Escherichia coli O157:H7 by Kirby Bauer paper diffusion method. Format: functional, organism-based.
The subject of assay [2] is Bacillus subtilis. In words: Antibacterial activity against Bacillus subtilis ATCC 6633 by Kirby Bauer paper diffusion method. Format: functional.
The test system of assay [3] is Bacillus subtilis. In words: Antibacterial activity against Bacillus subtilis ATCC 6633 assessed as inhibition zone at 10 ug/mL by Kirby Bauer paper diffusion method. Format: functional. The following applies: read-out: DIZ.
In assay [4] the test system is Bacillus subtilis. The experiment in a line: Antibacterial activity against Bacillus subtilis ATCC 6633 assessed as inhibition zone at 15 ug/mL by Kirby Bauer paper diffusion method. The following applies: read-out: DIZ. It counts as functional.

SMILES strings stand for the structures. In brackets after ≈: the same amount, converted by molar mass. Activity calls are given as the source filed them. The rule behind the calls is not given here.

For orientation: MIC means the lowest concentration that inhibits growth of the organism. With `C#Cc1ccc(-c2c(C=O)c3ccccc3oc2=O)cc1`, the zone of inhibition at 25 µg/mL in the assay with Bacillus subtilis [1] was determined as 5 mm. Moreover, the result in the assay with Escherichia coli was inactive. Moreover, it took 25 µg/mL (≈ 91.1 µM) to inhibit growth in the assay with Bacillus subtilis [2] (MIC).
On to `O=C1C[C@]2(C=Cc3c(c4ccccc4oc3=O)O2)CN1`, for which the zone of inhibition at 25 µg/mL in the assay on Bacillus subtilis [1] turned out to be 5 mm. Also, the outcome in the assay on Escherichia coli was inactive. The compound also returned an MIC with Bacillus subtilis [2] of 25 µg/mL (≈ 92.8 µM).
Consider `O=C(Nc1ccccc1)c1cc(O)c(O)c(O)c1`, for which the zone of inhibition at 25 µg/mL in the assay with Bacillus subtilis [1] was 0 mm. Moreover, the outcome with Escherichia coli was inactive. The compound further had an MIC in the assay with Bacillus subtilis [2] of 25 µg/mL (≈ 102 µM).
For `CC1(C)S[C@@H]2[C@H](NC(=O)Cc3ccccc3)C(=O)N2[C@H]1C(=O)[O-].[K+]` [PENICILLIN G POTASSIUM], the zone of inhibition at 10 µg/mL in the assay on Bacillus subtilis [3] was determined as 16 mm. Besides, the MIC against Bacillus subtilis [2] was 10 µg/mL. Besides, the zone of inhibition at 15 µg/mL in the assay on Bacillus subtilis [4] worked out at 20 mm.
For the compound `Cc1c2oc(=O)ccc2cc2c(O)c(C(C)(C)O)oc12`, in the assay on Bacillus subtilis [1], the zone of inhibition at 25 µg/mL amounted to 4 mm. Moreover, the outcome with Escherichia coli was inactive. In the assay on Bacillus subtilis [2], this compound yielded an MIC of 25 µg/mL (≈ 91.2 µM).
For the compound `O=C(NCCO)c1ccccc1`, in the assay with Escherichia coli, the result was inactive. In the assay on Bacillus subtilis [2], this compound displayed an MIC of 15 µg/mL (≈ 90.8 µM). Further, the zone of inhibition at 15 µg/mL in the assay on Bacillus subtilis [4] was found to be 7 mm.

Source of the values: ChEMBL document CHEMBL1955836, “Isolation and identification of antibacterial neo-compounds from the red ants of ChangBai Mountain, Tetramorium sp” (2012).
